Like-named read-outs stand apart in the source and are kept apart here.
What was measured:
[1] = biological target: T1, hVR1 receptor (Homo sapiens, UniProt Q8NER1); assay type: binding; settings: pH 8
T1 construct: expressed in transfected cells; host or cells: HEK 293 (HEK 293-hVR1, zeocin-selected); membranes

[2] = biological target: T1, hVR1 receptor; settings: read-out: IC50, inhibition of [^3H]RTX binding to hVR1 receptor
[3] = biological target: T1, hVR1 receptor; assay type: binding; settings: for Kd: read-out: Kd of [^3H]RTX binding to hVR1 receptor

T1 sequence (Q8NER1 whole entry): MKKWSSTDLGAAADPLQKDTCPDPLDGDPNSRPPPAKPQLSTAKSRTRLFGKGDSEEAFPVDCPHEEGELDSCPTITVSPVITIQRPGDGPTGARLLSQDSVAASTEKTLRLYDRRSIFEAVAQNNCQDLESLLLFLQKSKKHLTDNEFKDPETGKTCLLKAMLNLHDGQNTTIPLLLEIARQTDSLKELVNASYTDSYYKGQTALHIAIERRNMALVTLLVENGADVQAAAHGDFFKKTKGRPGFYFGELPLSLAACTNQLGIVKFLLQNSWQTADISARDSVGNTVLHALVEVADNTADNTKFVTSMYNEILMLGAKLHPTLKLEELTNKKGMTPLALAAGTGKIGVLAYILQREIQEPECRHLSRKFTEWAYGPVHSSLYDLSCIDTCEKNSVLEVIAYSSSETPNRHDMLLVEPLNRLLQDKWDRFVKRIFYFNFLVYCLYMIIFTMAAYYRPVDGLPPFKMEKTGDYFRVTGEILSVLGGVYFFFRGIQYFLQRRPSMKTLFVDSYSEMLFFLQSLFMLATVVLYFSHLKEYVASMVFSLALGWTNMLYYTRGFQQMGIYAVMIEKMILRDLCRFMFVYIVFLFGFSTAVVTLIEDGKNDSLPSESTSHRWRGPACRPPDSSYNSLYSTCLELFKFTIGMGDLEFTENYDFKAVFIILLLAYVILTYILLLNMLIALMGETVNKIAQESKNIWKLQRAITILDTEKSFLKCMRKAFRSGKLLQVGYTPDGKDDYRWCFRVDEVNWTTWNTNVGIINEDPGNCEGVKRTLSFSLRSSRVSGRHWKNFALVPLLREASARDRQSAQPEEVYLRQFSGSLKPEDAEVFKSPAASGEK

With `O=C(O)CN(CCOCCOCCN(CC(=O)O)CC(=O)O)CC(=O)O` [EGTA] the “inhibition of [^3H]RTX binding” value [1] was 70%.
Work on `C=C(C)[C@]12C[C@@H](C)[C@@]34O[C@](Cc5ccccc5)(O[C@@H]1[C@@H]3C=C(COC(=O)Cc1ccc(O)c(OC)c1)C[C@]1(O)C(=O)C(C)=C[C@@H]41)O2` [Resiniferatoxin] yielded an IC50 ([2]; pH 7.4) of 0.78 ± 0.15 nM and an IC50 ([2]; pH 8.6) of 0.25 ± 0.03 nM.
`C=C(C)[C@]12C[C@@H](C)[C@@]34O[C@](Cc5ccccc5)(O[C@@H]1[C@@H]3C=C(COC(=O)Cc1ccc(O)c(OC)c1)C[C@]1(O)C(=O)C(C)=C[C@@H]41)O2` [[^3H]RTX, [^3H]resiniferatoxin] was tested, and the Kd ([3]; pH 5.1) was 6.62 ± 5.58 nM, the “Bmax of [^3H]RTX binding to hVR1 receptor” value (“Bmax of [^3H]RTX binding” below) ([3]; pH 7.4) was 928 ± 53 fmol/mg protein and the Kd ([3]; pH 7.4) was 0.65 ± 0.12 nM. For the same molecule, the “Bmax of [^3H]RTX binding” value ([3]; pH 8.6) was 869 ± 41 fmol/mg protein, the Kd ([3]; pH 8.6) was 0.18 ± 0.04 nM and the “Bmax of [^3H]RTX binding” value ([3]; pH 9.6) was 661 ± 127 fmol/mg protein. The Kd ([3]; pH 9.6) was 0.6 ± 0.31 nM.
